Experimental data reported in article PMC5217690 (The Journal of Biological Chemistry, 2016).
Changes are numbered by the printed parent chain.

Legend:
[1] = target: T1, TrmDEC (Escherichia coli, UniProt P0A873, Y86L); assay: ITC; assay type: binding
T1 construct: gene trmD; full-length, N-terminal His tag (pET28b), expressed in E. coli BL21(DE3), tag kept
T1 sequence (P0A873 2-255 Y86L): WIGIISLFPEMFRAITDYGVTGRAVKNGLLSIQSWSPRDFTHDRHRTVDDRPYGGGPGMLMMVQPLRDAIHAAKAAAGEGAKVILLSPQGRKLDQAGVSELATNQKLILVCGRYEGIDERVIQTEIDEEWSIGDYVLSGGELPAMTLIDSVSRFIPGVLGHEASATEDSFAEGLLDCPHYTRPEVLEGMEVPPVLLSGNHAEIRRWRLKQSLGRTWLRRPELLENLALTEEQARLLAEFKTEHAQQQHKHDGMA

[2] = target: T2, TrmDEC (Escherichia coli, UniProt P0A873, Y86F); assay: ITC; assay type: binding
T2 construct: gene trmD; full-length, N-terminal His tag (pET28b), expressed in E. coli BL21(DE3), tag kept
T2 sequence (P0A873 2-255 Y86F): T1 sequence (P0A873 2-255 Y86L) with L85F

C[S+](CC[C@H](N)C(=O)O)C[C@H]1O[C@@H](n2cnc3c(N)ncnc32)[C@H](O)[C@@H]1O (some centres unmarked) [AdoMet]
Kd [1]: 69.9 µM | Kd [2]: 27.9 µM
